{
  "source": "patent US20250011404A1",
  "about": "“TARGETING APOE ENHANCES T-CELL KILLING IN CANCER IMMUNOTHERAPY” (Children's National Medical Center, priority 2021, published 2025)",
  "key": {"[1]": {"tested_on": "activated mouse T cells", "assay": "Viability of CD3/CD28-activated T cells, flow cytometry with Sytox Red dead cell stain", "type": "cell-based", "settings": "T cells activated with CD3/CD28 dynabeads; COG133 0, 3, 9, 15 and 30 μM; 48 hr", "experimental": "FIG. 14A: T cells isolated from naïve mouse spleens were cultured in RPMI media, WT B16 conditioned media and apoE^−/− B16 conditioned media for 48 hr and the media was analyzed with ProcartaPlex multiplex immunoassay. […] Remarkably, these effects were reversed by incubating T-cells with conditioned media from apoE^−/− cells, similar to T-cells activated in control RPMI media alone. Results are expressed as mean score±SD. *p<0.05; **p<0.005; ***p<0.001, determined by unpaired two-tailed Student's t-test. FIG. 14B: The effect of apoE agonist peptide COG133 on the viability of activated mouse T cells was tested by culturing the cells in the presence of the indicated concentrations of peptide for 48 hr and cell death was quantified with flow cytometry using the APC-conjugated Sytox Red dead cell stain. […] The number in Quadrant 2 is the percentage of dead cells.\nT cells were activated with CD3/CD28 dynabeads and the effects of COG133 (0, 3, 9, 15 and 30 μM concentrations) on T cell apoptosis were evaluated.\nSpleens were collected from mice euthanized by C02 narcosis and cervical dislocation. Spleens were pulverized through a 40-μm mesh cell strainer and treated with ACK lysing buffer (Thermo Fisher) for 10 seconds to remove erythrocytes. […]"}, "[2]": {"tested_on": "vaccinated splenocytes from lrp8−/− mice", "assay": "Cytokine production of vaccinated splenocytes from lrp8−/− mice co-cultured with immunogenic B16 cells (ELISA, multiplex)", "type": "cell-based, mouse", "source_text": "To functionally define the role of the lrp8 receptor engagement in apoE suppression, vaccinated splenocytes from lrp8^−/− mice were isolated. These cells were co-cultured with BET/JQ1 treated (Myc-suppressed) immunogenic B16 cells for 48 hr with or without exposure to the apoE mimetic COG133. […] In addition, using ProcartaPlex multiplex immunoassay, we also quantified other cytokines/chemokines produced in the reaction. […] These included effector function: IFNγ; stimulator function, IL18, GM-CSF, G-CSF; inflammatory cytokines: IL2, IL3, IL4, IL5, IL9, IL13, IL23, IL12p70; chemo attractant factors: MCP-1, MCP3, MIP-1α, CCL-5 (Rantes); and regulatory factors: IL6, IL-10 (P<0.05). […] Cell culture supernatant was collected after centrifuge at 1,200 rpm for 10 min at 4° C. The concentrations of the following immune molecules were determined using the mouse Cytokine & Chemokine 36-plex ProcartaPlex Panel, a magnetic bead-based multiplex immunoassay (Thermo Scientific) following our previous protocol(19). Briefly, cell culture supernatant samples were mixed with antibody-linked polystyrene beads on a 96-well plate and incubated at room temperature (RT) for 2 h on an orbital shaker at 500 rpm. After washing, plates were incubated with biotinylated detection antibody for 30 min at RT. Plates were then washed twice and then labeled beads were resuspended in streptavidin-PE. Each sample was measured in duplicate along with standards (8-point dilutions) and the buffer control. Plates were read using a Luminex Bio-plex 200 system (Bio-Rad Corp.) for quantitative analysis. WT and apoE^−/− mice or WT and lrp8^−/− mice, were inoculated with either WT B16 or apoE^−/− B16 cells, with anti-CTLA4 antibody on day 0. These vaccinated splenocytes (VS) were harvested on day 7 and co-cultured with either WT B16 or apoE^−/− B16 cells for 48 hr, following which IFNγ levels in media were compared with ELISA assay. […] Readings were measured at 450 nm using the EnSpire 2300 Multilabel plate reader (Perkin Elmer, Waltham, Massachusetts, US)."}},
  "note": "Entries after “also recorded” stand apart in the source; their conditions may differ.",
  "data": [
    {"substance": "COG133: a fragment of apoE peptide, which competes with the apoE holoprotein for binding the LDL receptors and acts as an apoE mimetic", "values": [
      {"measurement": "T cell viability", "setting": "[1]", "value": "diminished in a dose dependent manner; also recorded: decreases in a dose dependent fashion"},
      {"measurement": "detectable cytokines with pattern similar to IFNγ: inhibition in WT mice, reversed in lrp8−/− splenocytes", "setting": "[2]; ProcartaPlex multiplex, with or without COG133, 48 hr", "value": "Seventeen out of 27"},
      {"measurement": "IFNγ production from lrp8−/− vaccinated splenocytes", "setting": "[2]; co-culture with BET/JQ1 treated B16 cells 48 hr, with COG133", "value": "inhibitory effect was lacking; also recorded: suppression did not occur"},
      {"measurement": "IL-13, IL-4, IL22, IL18, MCP-1, RANTES and Gro-α, lrp8−/− vaccinated splenocytes", "setting": "[2]; co-culture with Myc-inhibited B16 cells 48 hr, multiplex immunoassay (FIG. 18)", "value": "suppressive effect is diminished"}
    ]}
  ]
}
